According to patent publication US8653012B2, “Mutual solvent-soluble and/or alcohol blends-soluble particles for viscoelastic surfactant fluids” (Baker Hughes Incorporated, priority 2008, dated 2014):

Key:
[1] = Water solubility of dicarboxylic acid agents; assay type: physicochemical
Description: (§1) Two different dicarboxylic particles were used in the Examples herein. […] LCA141 is dodecanedioic acid (DDDA) (Agent B in U.S. Pat. No. 6,994,166), also from INVISTA.

[2] = Solubility of dicarboxylic acid agents in various solvents; assay type: physicochemical; settings: 183° F. (84° C.)
Description: as §1

Compound: O=C(O)CCCCCCCCCCC(=O)O [LCA141, dodecanedioic acid]
- Water solubility ([1]; 70° F. (21° C.)): Very low (70° F. (21° C.))
- Water solubility ([1]; 140° F. (60° C.)): 0.012% (140° F. (60° C.))
- Water solubility ([1]; 176° F. (80° C.)): 0.01% (176° F. (80° C.))
- Water solubility ([1]; 212° F. (100° C.)): 0.04% (212° F. (100° C.))
- Solubility, % ([2]; Blend C (50:50 v/v isopropanol and oxyalkylated alcohol mixture)): 6.99 (183° F. (84° C.)) %
- Solubility, % ([2]; Ethylene glycol monobutyl ether (EGMBE)): 5.89 (183° F. (84° C.)) %
- Solubility, % ([2]; Isopropanol): >9.73 (183° F. (84° C.)) %
